Experimental data as given in patent US11278624B2, “Formulations” (Arecor Limited, priority 2016, dated 2022).
One block for each compound: values may come before it.

Assays:
[1] = 25° C.; as quoted by NIST reference database 46; cited from earlier work
[2] = Visual assessment of insulin lispro (100 U/ml) formulations with 0.4 mM EDTA and different surfactants after storage; type: physicochemical; conditions: insulin lispro 100 U/ml with 0.4 mM EDTA; for effect of surfactant on precipitation: 30° C. for 4 weeks
Description: (§1) European Pharmacepoeia Monograph (Particulate Contamination: Visible Particles).
(§2) The presence of any particles is recorded.
The effect of different surfactants was tested on stability of insulin lispro (100 U/ml) in the presence of 0.4 mM EDTA. The visual assessment method described in General Methods was used.

[3] = Size exclusion chromatography main peak of insulin lispro formulations after storage; type: physicochemical; conditions: insulin lispro 100 U/ml with 0.4 mM EDTA; 30° C. for 4 weeks
[4] = Visual Assessment Scoring Method B, insulin lispro (100 U/ml) with citric acid, storage at indicated temperatures; conditions: insulin lispro 100 U/ml with citric acid 22 mM
Description: The apparatus required consists of a viewing station comprising: • a matt black panel of appropriate size held in a vertical position • a non-glare white panel of appropriate size held in a vertical position next to the black panel • an adjustable lampholder fitted with a suitable, shaded, white-light source and with a suitable light diffuser (a viewing illuminator containing two 13 W fluorescent tubes, each 525 mm in length, is suitable).
Any adherent labels are removed from the container and the outside washed and dried. The container is gently swirled or inverted, ensuring that air bubbles are not introduced, and observed for about 5 s in front of the white panel. The procedure is repeated in front of the black panel. The presence of any particles is recorded.
Whilst the particles in samples with visual scores 4 and 5 are clearly detectable on casual visual assessment under normal light, samples with visual score 1-3 generally appear as clear solutions on the same assessment. Samples with visual scores 1-3 are considered to be “Pass”; samples with visual score 4-5 are considered to be “Fail”.
Stability of insulin lispro (100 U/ml) was investigated in formulations comprising citric acid (22 mM), both in the presence and in the absence of polysorbate 80.

[5] = Visual Assessment Scoring Method B, insulin aspart (100 U/ml) with trisodium citrate, L-histidine or pyrophosphate, storage at 30° C.; type: physicochemical
Description: as §1, §2
(§3) Visual Assessment Scoring Method B
(§4) Visual score 1: Clear solution, virtually free of particles
(§5) Visual score 2: ˜5 very small particles
(§6) Visual score 3: ˜10-20 very small particles
(§7) Visual score 4: 20-50 particles, including larger particles
(§8) Visual score 5: >50 particles, including larger particles

[6] = Visual Assessment Scoring Method B, insulin aspart (1000 U/ml) with different concentrations of citric acid and polysorbate 80; type: physicochemical; conditions: insulin aspart 1000 U/ml with citric acid 44-88 mM
Description: as §1, §2, §3, §4, §5, §6, §7, §8
The stability of insulin aspart (1000 U/ml) was investigated in the presence of different concentrations of citric acid and different concentrations of polysorbate 80. […] Three concentrations of citric acid (44, 66 and 88 mM) and four concentrations of each non-ionic surfactant were tested as well as corresponding surfactant-free compositions.

[7] = Visual Assessment Scoring Method B, insulin aspart (1000 U/ml) with trisodium citrate, L-histidine or pyrophosphate; type: physicochemical
Description: as §1, §2, §3, §4, §5, §6, §7, §8

[8] = Visual Assessment Scoring Method A, insulin aspart (100 U/ml) with 22 mM sodium citrate, storage at 30° C.; type: physicochemical
Description: as §1, §2
Visual Assessment Scoring Method A
Visual score 1: clear solution free of particles
Visual score 2: slight particle formation
Visual score 3: more significant precipitation

Compound: O=C(O)CN(CCN(CC(=O)O)CC(=O)O)CC(=O)O [EDTA, ethylenediaminetetraacetate]
log K metal binding stability constant with respect to zinc binding [1]: 14.5

Compound: O=C(O)CN(CCOCCOCCN(CC(=O)O)CC(=O)O)CC(=O)O [EGTA, ethyleneglycoltetraacetate]
log K metal binding stability constant with respect to zinc binding [1]: 12.6

effect of surfactant on precipitation [2]: prevented precipitation
effect of surfactant on reduction in size of the main peak on SEC and RP-HPLC chromatograms [3]: did not prevent
Compound: CCCCCCCCCCCCC[N+](C)(C)Cc1ccccc1 [benzalkonium chloride]

Compound: CC(C)(C)CC(C)(C)c1ccc(OCCOCC[N+](C)(C)Cc2ccccc2)cc1 [benzethonium chloride]
effect of surfactant on precipitation [2]: prevented precipitation
effect of surfactant on reduction in size of the main peak on SEC and RP-HPLC chromatograms [3]: did not prevent

Compound: O=C(O)CC(O)(CC(=O)O)C(=O)O [citrate]
log K metal binding stability constant with respect to zinc binding [1]: 4.93

effect of surfactant on precipitation [2]: prevented precipitation
effect of surfactant on reduction in size of the main peak on SEC and RP-HPLC chromatograms [3]: did not prevent
Compound: CCCCCCCCCCCCO[C@@H]1O[C@H](CO)[C@@H](O[C@H]2O[C@H](CO)[C@@H](O)[C@H](O)[C@H]2O)[C@H](O)[C@H]1O [dodecyl maltoside]

Compound: N[C@@H](Cc1c[nH]cn1)C(=O)O [histidine]
log K metal binding stability constant with respect to zinc binding [1]: 6.51

Compound: O=P(O)(O)OP(=O)(O)O [pyrophosphate]
log K metal binding stability constant with respect to zinc binding [1]: 8.71

effect of surfactant on particle formation rate [5]: worse than that of polysorbate 80
Compound: poloxamer 188
effect of surfactant on destabilising effect of citric acid [4]: notably weaker than that of polysorbate 80

Compound: polyoxyethylene (20) sorbitan monolaurate [Polysorbate 20]
effect of surfactant on destabilising effect of citric acid [4]: notably weaker than that of polysorbate 80
effect of surfactant on particle formation rate [5]: not effective at all

effect of surfactant on rate of particle formation [7]: stabilising effect
effect of surfactant on particle formation rate [5]: stabilising effect
Compound: polyoxyethylene (20) sorbitan monooleate [polysorbate 80]
effect of surfactant on rate of particle formation [6]: reduction in the rate of particle formation
stability after storage at 30° C. for 4 weeks ([2]; visual, SEC and RP-HPLC taken together): almost comparable with the EDTA-free control
effect of surfactant on destabilising effect of citric acid [4]: appeared to mitigate the destabilising effect
effect of surfactant on rate of particle formation [8]: considerable reduction in the rate of particle formation
